Patent publication US12497408B2, “Tetracyclic compounds and methods for the treatment of Zika virus infection” (priority 2021, dated 2025)

What follows are compounds tested on ZIKV (assay: ZIKV reporter virus-based antiviral screening on Huh7 cells). Details: Huh7 cells infected with recombinant luciferase reporter ZIKV (MOI about 0.1), 48 hrs, luciferase signal; read-out: EC50.
Format: cell-based, Zika virus
Summary of the method: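 Huh7 cells in 2% FBS assay medium infected at MOI about 0.1 with Renilla or Nano luciferase ZIKV premixed with nine-point compound dilutions, 48 hrs at 37° C. Luciferase signal normalized to DMSO controls as 100%; viability optionally by CellTiter-Glo with Rlu virus.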
`COC(=O)N[C@H](C(=O)N1[C@@H](C)CC[C@H]1c1nc(Cl)c(-c2cc3c4c(c2)OCc2cc(-c5[nH]c([C@@H]6CC[C@H](C)N6C(=O)[C@@H](NC(=O)OC)C(C)(C)C(F)(F)F)nc5Cl)cc(c2-4)OC3)[nH]1)C(C)(C)C(F)(F)F` [Compound 34, dimethyl ((2S,2′S)-((2S,2′S,5S,5′S)-((5,10-dihydrochromeno[5,4,3-cde]chromene-2,7-diyl)bis(4-chloro-1H-imidazole-5,2-diyl))bis(2-methylpyrrolidine-5,1-diyl))bis(4,4,4-trifluoro-3,3-dimethyl-1-oxobutane-l,2-diyl))dicarbamate] showed an EC50 of 2.6 nM.

Same assay, conditions: Zika virus, Huh-7, 48 h, Huh7 cells infected with recombinant luciferase reporter ZIKV (MOI about 0.1), luciferase signal
In the case of `COC(=O)N[C@H](C(=O)N1[C@@H](C)CC[C@H]1c1nc(Cl)c(-c2cc3c4c(c2)OCc2cc(-c5[nH]c([C@@H]6CC[C@H](C)N6C(=O)[C@@H](NC(=O)OC)C6C[C@@H](C)O[C@H](C)C6)nc5Cl)cc(c2-4)OC3)[nH]1)C1C[C@@H](C)O[C@H](C)C1` (stereo partly drawn) [Compound 21, dimethyl ((1S,1′S)-((2S,2′S,5S,5′S)-((5,10-dihydrochromeno[5,4,3-cde]chromene-2,7-diyl)bis(4-chloro-1H-imidazole-5,2-diyl))bis(2-methylpyrrolidine-5,1-diyl))bis(1-((2R,6R)-2,6-dimethyltetrahydro-2H-pyran-4-yl)-2-oxoethane-2,1-diyl))dicarbamate], the EC50 is reported as 9.3 nM.
Work on `CC[C@H](C)[C@H](NC(=O)OC)C(=O)N1CCCC[C@H]1c1nc(Cl)c(-c2cc3c4c(c2)OCc2cc(-c5[nH]c([C@@H]6CCCCN6C(=O)[C@@H](NC(=O)OC)[C@@H](C)CC)nc5Cl)cc(c2-4)OC3)[nH]1` [Compound 14, dimethyl ((2S,2′S,3S,3′S)-((2S,2′S)-((5,10-dihydrochromeno[5,4,3-cde]chromene-2,7-diyl)bis(4-chloro-1H-imidazole-5,2-diyl))bis(piperidine-2,1-diyl))bis(3-methyl-1-oxopentane-1,2-diyl))dicarbamate] yielded an EC50 of 4.6 nM.
For `COC(=O)N[C@H](C(=O)N1C[C@@H](C)C[C@H]1c1nc(Cl)c(-c2cc3c4c(c2)OCc2cc(-c5[nH]c([C@@H]6C[C@H](C)CN6C(=O)[C@@H](NC(=O)OC)C(C)C)nc5Cl)cc(c2-4)OC3)[nH]1)C(C)C` [Compound 48, dimethyl ((2S,2′S)-((3S,3′S,5S,5′S)-((5,10-dihydrochromeno[5,4,3-cde]chromene-2,7-diyl)bis(4-chloro-1H-imidazole-5,2-diyl))bis(3-methylpyrrolidine-5,1-diyl))bis(3-methyl-1-oxobutane-1,2-diyl))dicarbamate], the EC50 was 4.6 nM.
`COC(=O)N[C@H](C(=O)N1[C@@H](C)CC[C@H]1c1nc(Cl)c(-c2cc3c4c(c2)OCc2cc(-c5[nH]c([C@@H]6CC[C@H](C)N6C(=O)[C@@H](NC(=O)OC)C(C)C)nc5Cl)cc(c2-4)OC3)[nH]1)C(C)C` [Compound 74, dimethyl ((2S,2′S)-((2S,2′S, 5S,5′S)-((5,10-dihydrochromeno[5,4,3-cde]chromene-2,7-diyl)bis(4-chloro-1H-imidazole-5,2-diyl))bis(2-methylpyrrolidine-5,1-diyl))bis(3-methyl-1-oxobutane-1,2-diyl))dicarbamate] gave an EC50 of 2 nM.
Work on `COC(=O)N[C@H](C(=O)N1C[C@@H](C)C[C@H]1c1nc(Cl)c(-c2cc3c4c(c2)OCc2cc(-c5[nH]c([C@@H]6C[C@H](C)CN6C(=O)[C@@H](NC(=O)OC)[C@@H](C)OC)nc5Cl)cc(c2-4)OC3)[nH]1)[C@@H](C)OC` [Compound 47, dimethyl ((2S,2′S,3R,3′R)-((3S,3′S,5S,5′S)-((5,10-dihydrochromeno[5,4,3-cde]chromene-2,7-diyl)bis(4-chloro-1H-imidazole-5,2-diyl))bis(3-methylpyrrolidine-5,1-diyl))bis(3-methoxy-1-oxobutane-1,2-diyl))dicarbamate] yielded an EC50 of 16.9 nM.
`CC[C@H](C)[C@H](NC(=O)OC)C(=O)N1C[C@@H](F)C[C@H]1c1nc(Cl)c(-c2cc3c4c(c2)OCc2cc(-c5[nH]c([C@@H]6C[C@H](F)CN6C(=O)[C@@H](NC(=O)OC)[C@@H](C)CC)nc5Cl)cc(c2-4)OC3)[nH]1` [Compound 51, dimethyl ((2S,2′S,3S,3′S)-((3S,3′S,5S,5′S)-((5,10-dihydrochromeno[5,4,3-cde]chromene-2,7-diyl)bis(4-chloro-1H-imidazole-5,2-diyl))bis(3-fluoropyrrolidine-5,1-diyl))bis(3-methyl-1-oxopentane-1,2-diyl))dicarbamate] showed an EC50 of 98.8 nM.
Compound `COC(=O)N[C@H](C(=O)N1C[C@H](F)C[C@H]1c1nc(Cl)c(-c2cc3c4c(c2)OCc2cc(-c5[nH]c([C@@H]6C[C@@H](F)CN6C(=O)[C@@H](NC(=O)OC)C(C)C)nc5Cl)cc(c2-4)OC3)[nH]1)C(C)C` [Compound 53, dimethyl ((2S,2′S)-((3R,3′R,5S,5′S)-((5,10-dihydrochromeno[5,4,3-cde]chromene-2,7-diyl)bis(4-chloro-1H-imidazole-5,2-diyl))bis(3-fluoropyrrolidine-5,1-diyl))bis(3-methyl-1-oxobutane-1,2-diyl))dicarbamate] has an EC50 of 7.3 nM.
`CCc1nc([C@@H]2CCCN2C(=O)[C@@H](NC(=O)OC)C(C)C)[nH]c1-c1cc2c3c(c1)OCc1cc(-c4[nH]c([C@@H]5CCCN5C(=O)[C@@H](NC(=O)OC)C(C)C)nc4CC)cc(c1-3)OC2` [Compound 18, dimethyl ((2S,2′S)-((2S,2′S)-((5,10-dihydrochromeno[5,4,3-cde]chromene-2,7-diyl)bis(4-ethyl-1H-imidazole-5,2-diyl))bis(pyrrolidine-2,1-diyl))bis(3-methyl-1-oxobutane-1,2-diyl))dicarbamate] was tested, and the EC50 was 255 nM.
`COC(=O)N[C@H](C(=O)N1[C@@H](C)CC[C@H]1c1nc(C(C)C)c(-c2cc3c4c(c2)OCc2cc(-c5[nH]c([C@@H]6CC[C@H](C)N6C(=O)[C@@H](NC(=O)OC)C(C)(C)C(F)(F)F)nc5C(C)C)cc(c2-4)OC3)[nH]1)C(C)(C)C(F)(F)F` [Compound 42, dimethyl ((2S,2′S)-((2S,2′S,5S,5′S)-((5,10-dihydrochromeno[5,4,3-cde]chromene-2,7-diyl)bis(4-isopropyl-1H-imidazole-5,2-diyl))bis(2-methylpyrrolidine-5,1-diyl))bis(4,4,4-trifluoro-3,3-dimethyl-1-oxobutane-1,2-diyl))dicarbamate] was tested, and the EC50 was 1.9 nM.
`COC(=O)N[C@H](C(=O)N1[C@@H](C)CC[C@H]1c1ncc(-c2cc3c4c(c2)OCc2cc(-c5[nH]c([C@@H]6CC[C@H](C)N6C(=O)[C@@H](NC(=O)OC)C(C)C)nc5Cl)cc(c2-4)OC3)[nH]1)C(C)C` [Compound 75, methyl ((S)-1-((2S,5S)-2-(4-chloro-5-(7-(2-((2S,5S)-1-((methoxycarbonyl)-L-valyl)-5-methylpyrrolidin-2-yl)-1H-imidazol-5-yl)-5,10-dihydrochromeno[5,4,3-cde]chromen-2-yl)-1H-imidazol-2-yl)-5-methylpyrrolidin-1-yl)-3-methyl-1-oxobutan-2-yl)carbamate] was tested, and the EC50 was 9.6 nM.
Work on `COC(=O)N[C@H](C(=O)N1C[C@@H](C)C[C@H]1c1nc(Cl)c(-c2cc3c4c(c2)OCc2cc(-c5[nH]c([C@@H]6C[C@H](C)CN6C(=O)[C@@H](NC(=O)OC)C(C)C)nc5C(C)C)cc(c2-4)OC3)[nH]1)C(C)C` [Compound 80, methyl ((S)-1-((2S,4S)-2-(5-(7-(4-chloro-2-((2S,4S)-1-((methoxycarbonyl)-L-valyl)-4-methylpyrrolidin-2-yl)-1H-imidazol-5-yl)-5,10-dihydrochromeno[5,4,3-cde]chromen-2-yl)-4-isopropyl-1H-imidazol-2-yl)-4-methylpyrrolidin-1-yl)-3-methyl-1-oxobutan-2-yl)carbamate] yielded an EC50 of 5.7 nM.
